# Measurements: patent US9827236B2, “Method of inhibiting the glycation of nutrient and endogenous proteins and peroxidation of nutrient and endogenous lipids” (priority 2014, dated 2017)
# Key:
# [1] = system: nutrient lipid (PUFA, MUFA) peroxidation; assay: Inhibition of nutrient lipid peroxidation, in vitro, iodometric titration
# Experimental: Percentage inhibition was determined using an in vitro experiment. Olive oil, a polyunsaturated fatty acid (PUFA) and safflower oil, a monounsaturated fatty acid (MUFA) were used to simulate nutrient lipids.
# In another embodiment, peroxidation is induced in nutrient lipids by thermally processing them at various temperatures and with various levels of alkalinity. The processing is repeated by adding the identified peroxidation inhibitor. The nutrient lipid in this case could be polyunsaturated fatty acid or monounsaturated fatty acid in liquid, semisolid or solid form.
# (§1) The effectiveness of the inhibiting agents and their combinations were ascertained using a series of in vitro experiments with nutrient lysine or collage protein, various sugars, natural polyunsaturated fatty acids and monounsaturated fatty acids and natural, pure form of inhibiting agents in extract forms. Absorbance values, measured using a spectrophotometer, were used to determine and compare formation of glycated proteins. Industry standard iodometric titration was used to determine and compare peroxidation levels in lipids.
# (§2) In the case of inhibition of nutrient protein glycation and nutrient lipid peroxidation for disease prevention, it is recommended that the amount of inhibiting agent to be combined with the nutrient protein or nutrient lipid be as shown in the Table 1. Further, a combination of such inhibiting agents could be applied to increase the effectiveness of inhibition.
# [2] = system: nutrient protein (lysine) in the presence of reducing sugars; assay: Inhibition of nutrient protein glycation, in vitro, absorbance by spectrophotometer
# Experimental: Percentage inhibition was determined using an in vitro experiment. Lysine was used to simulate the nutrient protein.
# In one embodiment of the present application, glycation is induced in the nutrient proteins by combining them with different types of sugars and thermally processing the combination at various temperatures and with various levels of alkalinity. The processing is repeated by adding the identified glycation inhibitor. The nutrient protein in this case could be lysine or any other nutrient protein in liquid, semisolid or solid form.
# as §1, §2
# [3] = system: nutrient protein (lysine); assay: Effect of pH variation on protein glycation, in vitro, spectrophotometer; conditions: for % decrease om AGE formation with decreasing pH: protein glycation
# From the text: (§3) In one embodiment of the present application, glycation is induced in the nutrient proteins by combining them with different types of sugars and thermally processing the combination at various temperatures and with various levels of alkalinity. The processing is repeated by adding the identified glycation inhibitor. The nutrient protein in this case could be lysine or any other nutrient protein in liquid, semisolid or solid form. In the context of this invention, thermal processing implies heating the food at various temperatures using any method of cooking such as baking, roasting, frying, boiling, etc. […] The effectiveness of the inhibiting agents and their combinations were ascertained using a series of in vitro experiments with nutrient lysine or collage protein, various sugars, natural polyunsaturated fatty acids and monounsaturated fatty acids and natural, pure form of inhibiting agents in extract forms. Absorbance values, measured using a spectrophotometer, were used to determine and compare formation of glycated proteins. Industry standard iodometric titration was used to determine and compare peroxidation levels in lipids.
# [4] = system: nutrient protein (lysine); assay: Effect of temperature on protein glycation, in vitro, spectrophotometer; conditions: for % decrease in AGE formation from 100 to 60 deg C.: protein glycation
# From the text: as §3
Compound,"Concentration needed for 50% inhibition, Lipid Peroxidation [1]","Concentration needed for 50% inhibition, Protein Glycation [2]",Absorbance at different pH values ([3]; pH 8),Absorbance at different pH values ([3]; pH 10),Absorbance at different pH values ([3]; ph 4),% decrease om AGE formation with decreasing pH [3],Absorbance at different temperatures ([4]; 60 deg C.),Absorbance at different temperatures ([4]; 80 deg C.),Absorbance at different temperatures ([4]; 100 deg C.),% decrease in AGE formation from 100 to 60 deg C. [4]
"O=C1O[C@H]([C@@H](O)CO)C(O)=C1O [Antioxidant (Ascorbic Acid), Ascorbic Acid]",11%,7%,–,–,–,–,–,–,–,–
"NCCC(=O)N[C@@H](Cc1cnc[nH]1)C(=O)O [Chelating agent (Carnosine), Carnosine]",12%,16%,–,–,–,–,–,–,–,–
"Oc1ccc(C=Cc2cc(O)cc(O)c2)cc1 [Phenol (Resveratrol), Resveratrol]",8%,10%,–,–,–,–,–,–,–,–
OC[C@H]1O[C@@H](O[C@H]2[C@H](O)[C@@H](O)C(O)O[C@@H]2CO)[C@H](O)[C@@H](O)[C@H]1O (some centres unmarked) [Lactose],–,–,0.17,0.22,0.02,90.8%,0.06,0.18,0.17,67.9%
OC[C@H]1O[C@H](O[C@H]2[C@H](O)[C@@H](O)[C@H](O)O[C@@H]2CO)[C@H](O)[C@@H](O)[C@@H]1O [Maltose],–,–,0.22,0.26,0.04,84.4%,0.04,0.22,0.22,80.0%
"O=C(O[C@@H]1Cc2c(O)cc(O)cc2O[C@@H]1c1cc(O)c(O)c(O)c1)c1cc(O)c(O)c(O)c1 [Catechin (EGCG), EGCG]",9%,13%,–,–,–,–,–,–,–,–
Tocopherol [Antioxidant (Tocopherol)],15%,17%,–,–,–,–,–,–,–,–
O=C(CO)[C@@H](O)[C@H](O)[C@H](O)CO [Fructose],–,–,0.5,0.65,0.07,89.4%,0.1,0.37,0.5,79.1%
"NC(=O)c1cccnc1 [Antioxidant (Niacinamide), Niacinamide]",13%,15%,–,–,–,–,–,–,–,–
O=C[C@H](O)[C@H](O)[C@H](O)CO [Ribose],–,–,0.59,0.79,0.09,88.4%,0.13,0.52,0.59,78.1%
